From ChEMBL document CHEMBL1150173, “Antiviral saponins from Tieghemella heckelii” (J Nat Prod, 2002)
The source made the active and inactive calls. The calls are words filed in the database; no cut-off is given here.

Assays:
[1] = test system: Human immunodeficiency virus 1; assay: Inhibition of HIV1 in wild type CHO cells mediated human HeLa-CD4+ cell fusion assessed as inhibition of syncytium formation at 20 uM by cell-cell fusion assay; format: functional
HeLa = assay: Cytotoxicity against human HeLa cells expressing CD4+ construct at 20 uM after 3 days by MTT assay; format: cell-based; conditions: 72 h

Structure (SMILES)	Activity [1]	Activity (HeLa)	inhibition at 20 µM ([1]; Human immunodeficiency virus 1, CHO) [%]
CC1(C)CC[C@]2(C(=O)O)[C@H](O)C[C@]3(C)C(=CC[C@@H]4[C@@]5(C)C[C@H](O)[C@H](O[C@@H]6O[C@H](C(=O)O)[C@@H](O)[C@H](O)[C@H]6O)[C@@](C)(CO)[C@@H]5[C@H](O)C[C@]43C)[C@@H]2C1	inactive		
CC1(C)CC[C@]2(C(=O)O)[C@H](O)C[C@]3(C)C(=CC[C@@H]4[C@@]5(C)C[C@H](O)[C@H](O[C@@H]6O[C@H](CO)[C@@H](O)[C@H](O)[C@H]6O)[C@@](C)(CO)[C@@H]5[C@H](O)C[C@]43C)[C@@H]2C1	inactive		
C[C@@H]1O[C@@H](O[C@@H]2[C@@H](O)[C@H](O[C@@H]3[C@@H](O)[C@@H](O)[C@H](O[C@H]4[C@H](OC(=O)[C@]56CCC(C)(C)C[C@H]5C5=CC[C@@H]7[C@@]8(C)C[C@H](O)[C@H](O[C@@H]9O[C@H](CO)[C@@H](O)[C@H](O)[C@H]9O)[C@@](C)(CO)[C@@H]8[C@H](O)C[C@@]7(C)[C@]5(C)C[C@H]6O)OC[C@H](O)[C@@H]4O)O[C@H]3C)OC[C@H]2O)[C@H](O)[C@H](O)[C@H]1O [ARGANINE C]		Non-toxic	100
C[C@@H]1O[C@@H](O[C@@H]2[C@@H](O)[C@H](O[C@@H]3[C@@H](O)[C@@H](O)[C@H](O[C@H]4[C@H](OC(=O)[C@]56CCC(C)(C)C[C@H]5C5=CC[C@@H]7[C@@]8(C)C[C@H](O)[C@H](O[C@@H]9O[C@H](C(=O)O)[C@@H](O)[C@H](O)[C@H]9O)[C@@](C)(CO)[C@@H]8[C@H](O)C[C@@]7(C)[C@]5(C)C[C@H]6O)OC[C@H](O)[C@@H]4O)O[C@H]3C)OC[C@H]2O)[C@H](O)[C@H](O)[C@H]1O [TIEGHEMELIN]		Non-toxic	
